These results are taken from patent US8058332B2, “Phosphorus-sulfur FR additives and polymer systems containing same” (priority 2006, dated 2011).

This data set is classed as physicochemical. The conditions noted are these: TGA, nitrogen 60 mL/min, heating rate 10° C./min, room temperature to 600° C. As for the experimental part: A useful indicator of thermal stability is a 5% weight loss temperature, which is measured by thermogravimetric analysis as follows: ˜10 milligrams of the phosphorus-sulfur FR additive is analyzed using a TA Instruments model Hi-Res TGA 2950 or equivalent device, with a 60 milliliters per minute (mL/min) flow of gaseous nitrogen and a heating rate of 10° C./min over a range of from room temperature (nominally 25° C.) to 600° C. The mass lost by the sample is monitored during the heating step, and the temperature at which the sample has lost 5% of its initial weight is designated the 5% weight loss temperature (5% WLT). This method provides a temperature at which a sample undergoes a cumulative weight loss of 5 wt %, based on initial sample weight. […] When it is to be used in a melt-processing operation with a combustible polymer, the phosphorus-sulfur FR additive should have a 5% WLT of at least 150° C.
Turning to “2,2′,2″,2″′-[1,2,4,6-phenylenetetra(methylthio)]tetra[5,5-dimethyl-1,3,2-dioxaphosphorinane]-2,2′,2″,2″′-sulfide [Example 7]”, the “5% WLT” value is 281 °C.

On to “2,2′-{1,4-phenylenebis[(dimethylsilanediyl)ethane-2,1-diylbicyclo[2.2.1]heptane-6,2-diylthio]}bis(5,5-dimethyl-1,3,2-dioxaphosphorinane) 2,2′-disulfide [Example 27]”, for which the “5% WLT” value is 285 °C.

Take `CC1(C)COP(=S)(SC/C=C/CSP2(=S)OCC(C)(C)CO2)OC1` [Example 1, 2,2′-[2-butene-1,4-diylbis(methylthio)]bis[5,5-dimethyl-1,3,2-dioxaphosphorinane]-2,2′-disulfide]: the “5% WLT” value amounted to 241 °C.

Turning to `CC1(C)COP(=S)(SCc2ccccc2CSP2(=S)OCC(C)(C)CO2)OC1` [Example 4, 2,2′-[1,2-phenylenebis(methylthio)]bis[5,5-dimethyl-1,3,2-dioxaphosphorinane]-2,2′-disulfide], the “5% WLT” value stood at 240 °C.

With `CC1(C)COP(=O)(SCc2ccccc2CSP2(=O)OCC(C)(C)CO2)OC1` [Example 5, 2,2′-[1,2-phenylenebis(methylthio)]bis[5,5-dimethyl-1,3,2-dioxaphosphorinane]-2,2′-dioxide], the “5% WLT” value came out at 247 °C.

For `Cc1c(CSP2(=S)OCC(C)(C)CO2)c(C)c(CSP2(=S)OCC(C)(C)CO2)c(C)c1CSP1(=S)OCC(C)(C)CO1` [Example 8, 2,2′,2″-[2,4,6-trimethyl-1,3,5-phenylenetris(methylthio)]tris[5,5-dimethyl-1,3,2-dioxaphosphorinane]-2,2′,2″-disulfide], the “5% WLT” value was determined as 283 °C.

For the compound `CC1(C)COP(=S)(SCP(=O)(CSP2(=S)OCC(C)(C)CO2)CSP2(=S)OCC(C)(C)CO2)OC1` [Example 16], the “5% WLT” value stood at 243 °C.

For `CC1(C)COP(=S)(Sc2nc(SP3(=S)OCC(C)(C)CO3)nc(SP3(=S)OCC(C)(C)CO3)n2)OC1` [Example 17, 2,2′,2″-[s-triazine-2,4,6-tris(thio)]tris[(5,5-dimethyl-1,3,2-dioxaphosphorinane)-2,2′,2″-sulfide]], the “5% WLT” value was 249 °C.

As to `CC1(C)COP(=S)(N(Cc2ccccc2)P2(=S)OCC(C)(C)CO2)OC1` [Example 18, N-benzyl-N-(5,5-dimethyl-2-sulfido-1,3,2-dioxaphosphorinan-2-yl)-5,5-dimethyl-1,3,2-dioxaphosphorinan-2-amine-2-sulfide], the “5% WLT” value came to 202 °C.

With `CC1(C)COP(=S)(Cc2ccccc2CP2(=S)OCC(C)(C)CO2)OC1` [Example 19, [1,2-phenylenebis(methylene)]bis[5,5-dimethyl[1,3,2]dioxaphosphorinane]2,2′-disulfide], the “5% WLT” value was 284 °C.

Turning to `CC1(C)COP(=S)(SCCCCSP2(=S)OCC(C)(C)CO2)OC1` [Example 20, 2,2′-[1,4-butylbis(methylthio)]bis[5,5-dimethyl-1,3,2-dioxaphosphorinane]-2,2′-disulfide], the “5% WLT” value amounted to 244 °C.

On to `CC1(C)COP(=S)(SC2CC3CC2CC3SP2(=S)OCC(C)(C)CO2)OC1` (stereo not drawn) [Example 21, 2,2′-[bicyclo[2.2.1]heptane-2,5-diylbis(thio)]bis[5,5-dimethyl-1,3,2-dioxaphosphorinane]2,2′-disulfide], for which the “5% WLT” value worked out at 264 °C.

Consider `CCOC(=O)CC(SP1(=S)OCC(C)(C)CO1)C(=O)OCC` (stereo not drawn) [Example 23], for which the “5% WLT” value stood at 218 °C.

As to `CC(CCCCCCC(C)SP1(=S)OCC(C)(C)CO1)SP1(=S)OCC(C)(C)CO1` (stereo not drawn) [Example 24, 2,2′-[decane-2,9-diylbis(thio)]bis(5,5-dimethyl-1,3,2-dioxaphosphorinane)2,2′-disulfide], the “5% WLT” value is 239 °C.

On to `CC1(C)COP(=S)(SC(c2ccccc2)c2ccccc2)OC1` [Example 25, 2-[(diphenylmethyl)thio]-5,5-dimethyl-1,3,2-dioxaphosphorinane 2-sulfide], for which the “5% WLT” value is 238 °C.

On to `O=P1(SC/C=C/CSP2(=O)Oc3ccccc3-c3ccccc32)Oc2ccccc2-c2ccccc21` (stereo not drawn) [Example 26], for which the “5% WLT” value stood at 270 °C.

In the case of `CC1(C)COP(=O)(Cc2ccc(CSP3(=S)OCC(C)(C)CO3)cc2)OC1` [Example 28, 2-({4-[(5,5-dimethyl-2-oxido-1,3,2-dioxaphosphorinan-2-yl)methyl]benzyl}thio)-5,5-dimethyl-1,3,2-dioxaphosphorinane-2-sulfide], the “5% WLT” value was 257 °C.

For the compound `O=P1(SCc2ccccc2CSP2(=O)Oc3ccccc3-c3ccccc32)Oc2ccccc2-c2ccccc21` (stereo not drawn) [Example 29, 6,6′-[1,2-phenylenebis(methylenethio)]bis(6H-dibenz[c, e][1,2]oxaphosphorin) 6,6′-dioxide], the “5% WLT” value was 262 °C.

Take `Cc1c(CSP2(=O)Oc3ccccc3-c3ccccc32)c(C)c(CSP2(=O)Oc3ccccc3-c3ccccc32)c(C)c1CSP1(=O)Oc2ccccc2-c2ccccc21` (stereo not drawn) [Example 30, 6,6′,6″-[(2,4,6-trimethylbenzene-1,3,5-triyl)tris(methylenethio)]tris(6H-dibenzo-[c, e][1,2]oxaphosphorin) 6,6′,6″-trioxide]: the “5% WLT” value stood at 219 °C.

Consider `CC(COCC(COCC(C)SP1(=S)OCC(C)(C)CO1)(COCC(C)SP1(=S)OCC(C)(C)CO1)COCC(C)SP1(=S)OCC(C)(C)CO1)SP1(=S)OCC(C)(C)CO1` (stereo not drawn) [Example 31], for which the “5% WLT” value is 241 °C.

`CC1(C)COP(=S)(SCc2c(CSP3(=S)OCC(C)(C)CO3)c(CSP3(=S)OCC(C)(C)CO3)c(CSP3(=S)OCC(C)(C)CO3)c(CSP3(=S)OCC(C)(C)CO3)c2CSP2(=S)OCC(C)(C)CO2)OC1` [Example 33, 2,2′,2″,2″′,2″″′,2″″″-[benzene-1,2,3,4,5,6-hexaylhexakis(methylenethio)]hexakis(5,5-dimethyl-1,3,2-dioxaphosphorinane) 2,2′,2″,2″′,2′″″,2″″″-hexasulfide]: the “5% WLT” value came to 262 °C.

For the compound `CC1(C)COP(=S)(SCCC(=O)NCNC(=O)CCSP2(=S)OCC(C)(C)CO2)OC1` [Example 36], the “5% WLT” value was determined as 220 °C.

`CC1(C)COP(=S)(SC(c2ccccc2)c2cccc(C(SP3(=S)OCC(C)(C)CO3)c3ccccc3)c2)OC1` (stereo not drawn) [Example 37, 2,2′-{1,3-phenylenebis[(phenylmethylene)thio]}bis(5,5-dimethyl-1,3,2-dioxaphosphorinane) 2,2′-disulfide]: the “5% WLT” value is 259 °C.

On to `S=P1(CC(c2ccccc2)c2ccccc2)OCC2(CO1)COP(=S)(SC(c1ccccc1)c1ccccc1)OC2` (stereo not drawn) [Example 38], for which the “5% WLT” value was 240 °C.
